Test results as given in US20260053171A1, “METHANOGEN INHIBITORS” (AGRIZERONZ LIMITED PARTNERSHIP, priority 2022, published 2026).

Tested on: methane production in rumen fluid
Assay: Rumen in vitro (RIV) assay, methane production from rumen fluid incubations
Assay type: cell-based, cattle
Settings: for inhibition at 10 µM / inhibition at 50 µM / inhibition at 2 µM: Bos taurus, read-out: RIV % methane reduction +/− SD; for inhibition (methane, RIV positive control): 30 μM
Description: The compounds of the present invention were initially screened for activity using an in vitro fully automated incubation system for the measurement of total gas production and gas composition (methane and hydrogen). The system used is described in detail in the paper by Muetzel et al. (2014; Animal Feed Science and Technology 196, 1-11). The system in this specification is referred to as the rumen in vitro system or RIV. The RIV system provides a relatively simple tool for determining the rate and production of methane and also whether the rate and production of methane is inhibited or reduced by a particular compound or feed. Rumen in vitro assays use rumen fluid from donor animals (typically either sheep or cattle) which is typically combined with a buffer and then incubated in sealed fermentation vessels at 39° C. for either 24 or 48 h. These assays systems have been well-characterised and used by the scientific community over the last two decades (Rymer et al. 2005). The system that has been used here to characterise the effects of inhibitors on methane production and gas production, and the formation of H2, was described by Muetzel et al. (2014). Rumen in vitro assay systems reflect what can occur in the rumen in vivo, but only short-term, due to their short incubation times (typically not exceeding 48 h) which is limited by its buffering capacity and the fact that it is a closed system. Stock solutions of inhibitors were re-suspended in dimethylformamide (DMF) at concentrations 1000-fold higher than the highest used for the assays. Any further dilutions were also prepared using DMF. The total amount of inhibitor solution added to the rumen fluid-buffer mixture (60 mL) was 60 μl. Incubations used 60 ml of medium containing 12 ml of filtered rumen fluid and 48 ml of buffer in serum bottles for 24-48 h, essentially as described by Muetzel et al. (2014). Two fistulated cattle were used as donor animals for rumen fluid and treatments were incubated in duplicate bottles. Sets of duplicate incubation vials that contained ryegrass (with rumen fluid-buffer mixture), and ryegrass with 30 μM bromoethanesulfonate (BES) were also incubated as negative and positive controls, respectively. One experiment consists of 2 replicates of an inhibitor at any one concentration run at the same time, and a run can contain up to 32 bottle, including positive (30 µM BES) and negative (no inhibitor added) controls. Compound 1, for example, was tested using the 60 mL rumen in vitro assay system at 50 μM, 10 μM, and 2 μM final concentrations and compared to a positive control with 30 µM BES.

Row | SMILES | inhibition at 10 µM (10 μM) [%] | inhibition at 50 µM (50 μM) [%] | also measured
1 | O=C(O)CCC(=O)N1N=C(c2ccccc2-c2ccccc2)CC1c1ccc2nccnc2c1 (stereo not shown) [Compound 12, 4-(3-([1,1′-Biphenyl]-2-yl)-5-(quinoxalin-6-yl)-4,5-dihydro-1H-pyrazol-1-yl)-4-oxobutanoic acid] | 51.6 ± 1.5 | 95.9 ± 0.9 | 
2 | O=S(=O)(O)CCBr [BES, bromoethanesulfonate, reference compound] |  |  | inhibition (methane, RIV positive control) (at 10 hours): 70.5%; inhibition (methane, RIV positive control) (at 18 hours): 55.6%
3 | O=C(O)CCC(=O)N1N=C(c2ccc(-c3ccccc3Cl)cc2)CC1c1ccc2nccnc2c1 (stereo not shown) [Compound 17, 4-(3-(2′-Chloro-[1,1′-biphenyl]-4-yl)-5-(quinoxalin-6-yl)-4,5-dihydro-1H-pyrazol-1-yl)-4-oxobutanoic acid] | 74.2 ± 7.8 | 90 ± 1.2 | inhibition at 2 µM (2 μM): < 5%
4 | CS(=O)(=O)NC(=O)c1cccc(N2N=C(c3ccc(Cl)cc3)CC2c2ccc3nccnc3c2)c1 (stereo not shown) [Compound 72, 3-(3-(4-Chlorophenyl)-5-(quinoxalin-6-yl)-4,5-dihydro-1H-pyrazol-1-yl)-N-(methylsulfonyl)benzamide] | 82.5 ± 2.5 |  | inhibition at 2 µM (2 μM): 14.3 ± 4.7%
5 | O=C(O)CCC(=O)N1N=C(c2ccc(Oc3ccccc3)cc2)CC1c1ccc2nccnc2c1 (stereo not shown) [Compound 7, 4-Oxo-4-(3-(4-phenoxyphenyl)-5-(quinoxalin-6-yl)-4,5-dihydro-1H-pyrazol-1-yl)butanoic acid] | 30.7 ± 3.6 | 66.4 ± 14.7 | 
6 | CC(C)Sc1ccc(-c2ccc(C3=NN(C(=O)CCC(=O)O)C(c4ccc5nccnc5c4)C3)cc2)cc1 (stereo not shown) [Compound 93, 4-(3-(4′-(Isopropylthio)-[1,1′-biphenyl]-4-yl)-5-(quinoxalin-6-yl)-4,5-dihydro-1H-pyrazol-1-yl)-4-oxobutanoic acid] | 49.1 ± 10.8 |  | 
7 | CS(=O)(=O)NC(=O)CCC(=O)N1N=C(c2ccc(OC(F)(F)F)cc2)CC1c1ccc2nccnc2c1 (stereo not shown) [Compound 116, N-(Methylsulfonyl)-4-oxo-4-(5-(quinoxalin-6-yl)-3-(4-(trifluoromethoxy)phenyl)-4,5-dihydro-1H-pyrazol-1-yl) butanamide] |  |  | RIV % methane reduction +/− SD (2 μM): <5%; RIV % methane reduction +/− SD (10 μM): 72.4 ± 10.6%; RIV % methane reduction +/− SD (50 μM): 93.9 ± 4.7%
8 | O=C(O)CCCC(=O)N1N=C(c2ccc(Cl)cc2)CC1c1ccc2nccnc2c1 (stereo not shown) [Compound 50, 5-(3-(4-Chlorophenyl)-5-(quinoxalin-6-yl)-4,5-dihydro-1H-pyrazol-1-yl)-5-oxopentanoic acid] |  | 66.4 ± 2.9 | 
9 | O=C(O)CCC(=O)N1N=C(c2ccc(-c3cccc(Cl)c3)cc2)CC1c1ccc2nccnc2c1 (stereo not shown) [Compound 18, 4-(3-(3′-Chloro-[1,1′-biphenyl]-4-yl)-5-(quinoxalin-6-yl)-4,5-dihydro-1H-pyrazol-1-yl)-4-oxobutanoic acid] | 83.6 ± 1.5 | 94.1 ± 0.1 | inhibition at 2 µM (2 μM): < 5%
10 | O=C(O)CCC(=O)N1N=C(c2ccc(-c3ccc(OC(F)(F)F)cc3F)cc2)CC1c1ccc2nccnc2c1 (stereo not shown) [Compound 101, 4-(3-(2′-Fluoro-4′-(trifluoromethoxy)-[1,1′-biphenyl]-4-yl)-5-(quinoxalin-6-yl)-4,5-dihydro-1H-pyrazol-1-yl)-4-oxobutanoic acid] | 65.7 ± 2.9 |  | 
11 | CC(C)(C)Oc1ccc(-c2ccc(C3=NN(C(=O)CCC(=O)O)C(c4ccc5nccnc5c4)C3)cc2)cc1 (stereo not shown) [Compound 81, 4-(3-(4′-(tert-Butoxy)-[1,1′-biphenyl]-4-yl)-5-(quinoxalin-6-yl)-4,5-dihydro-1H-pyrazol-1-yl)-4-oxobutanoic acid] | 29.8 ± 17.8 |  | 
12 | O=C(O)CCC(=O)N1N=C(c2ccc(Cl)cc2)CC1c1ccc2nccnc2c1 (stereo not shown) [Compound 1, 4-(3-(4-Chlorophenyl)-5-(quinoxalin-6-yl)-4,5-dihydro-1H-pyrazol-1-yl)-4-oxobutanoic acid] |  | 37.6 ± 1.3 | 
